Results from ChEMBL document CHEMBL3885861, “Open TG-GATES”.

Species on record: Rattus norvegicus
Test: Open TG-GATES - Regimen: Single
Assay type: toxicity, organism-based, Sprague-Dawley
Design: regimen Single, gender Male, age 6 weeks
Settings: in vivo, ip, 0 mg/kg, route intraperitoneal injection, dose level Control; for APTT / Bas / Eos / Fbg / Hb / Ht / Lym / MCH / MCHC / MCV / Mono / Neu / PT / Plat / RBC / Ret / WBC: tissue Blood; for KIDNEY_L / KIDNEY_R / KIDNEY_TOTAL: tissue Kidney; for LIVER: tissue Liver; for A/G / ALP / ALT / AST / BUN / CRE / Ca / Cl / DBIL / GLC / IP / K / LDH / Na / PL / RALB / TBIL / TC / TG / TP / gamma-GTP: tissue Plasma

SMILES: N[C@H]1C(O)O[C@H](CO)[C@@H](O)[C@@H]1O (some centres not stated) [GLUCOSAMINE]
- TERMINAL_BW (3 h): 190.4 g
- APTT (3 h): 17.1 s
- Bas (3 h): 0.2%
- Eos (3 h): 0.6%
- Fbg (3 h): 273.4 mg/dL
- Hb (3 h): 12.6 g/dL
- Ht (3 h): 38.6%
- Lym (3 h): 73.6%
- MCH (3 h): 20.7 pg
- MCHC (3 h): 32.7%
- MCV (3 h): 63.4 fL
- Mono (3 h): 3.8%
- Neu (3 h): 20.2%
- PT (3 h): 15.5 s
- Plat (3 h): 111.6 x10_4/uL
- RBC (3 h): 609.4 x10_4/ul
- Ret (3 h): 9.4%
- WBC (3 h): 98.5 x10_2/uL
- KIDNEY_L (3 h): 0.9 g
- KIDNEY_R (3 h): 0.9 g
- KIDNEY_TOTAL (3 h): 1.7 g
- LIVER (3 h): 8.4 g
- A/G (3 h): 0.9
- ALP (3 h): 1386.8 IU/L
- ALT (3 h): 42.2 IU/L
- AST (3 h): 77 IU/L
- BUN (3 h): 9.6 mg/dL
- CRE (3 h): 0.2 mg/dL
- Ca (3 h): 10.5 mg/dL
- Cl (3 h): 106.4 meq/L
- DBIL (3 h): 0.01 mg/dL
- GLC (3 h): 175.4 mg/dL
- IP (3 h): 9.4 mg/dL
- K (3 h): 4.4 meq/L
- LDH (3 h): 61.2 IU/L
- Na (3 h): 142.2 meq/L
- PL (3 h): 141.6 mg/dL
- RALB (3 h): 2.4 g/dL
- TBIL (3 h): 0.052 mg/dL
- TC (3 h): 79.2 mg/dL
- TG (3 h): 47.8 mg/dL
- TP (3 h): 5.2 g/dL
- gamma-GTP (3 h): 0.8 IU/L
- TERMINAL_BW (6 h): 188.5 g
- APTT (6 h): 18.8 s
- Bas (6 h): 0.2%
- Eos (6 h): 0%
- Fbg (6 h): 298.6 mg/dL
- Hb (6 h): 12.9 g/dL
- Ht (6 h): 39.6%
- Lym (6 h): 62.6%
- MCH (6 h): 21.3 pg
- MCHC (6 h): 32.6%
- MCV (6 h): 65.5 fL
- Mono (6 h): 2%
- Neu (6 h): 34%
- PT (6 h): 15.8 s
- Plat (6 h): 113.1 x10_4/uL
- RBC (6 h): 604.2 x10_4/ul
- Ret (6 h): 9.4%
- WBC (6 h): 79.2 x10_2/uL
- KIDNEY_L (6 h): 0.8 g
- KIDNEY_R (6 h): 0.8 g
- KIDNEY_TOTAL (6 h): 1.6 g
- LIVER (6 h): 7.8 g
- A/G (6 h): 0.9
- ALP (6 h): 1323.4 IU/L
- ALT (6 h): 36.2 IU/L
- AST (6 h): 70.2 IU/L
- BUN (6 h): 8.2 mg/dL
- CRE (6 h): 0.2 mg/dL
- Ca (6 h): 10.3 mg/dL
- Cl (6 h): 106.8 meq/L
- DBIL (6 h): 0.008 mg/dL
- GLC (6 h): 178.6 mg/dL
- IP (6 h): 9.8 mg/dL
- K (6 h): 4 meq/L
- LDH (6 h): 51.8 IU/L
- Na (6 h): 142.4 meq/L
- PL (6 h): 144 mg/dL
- RALB (6 h): 2.5 g/dL
- TBIL (6 h): 0.052 mg/dL
- TC (6 h): 82.8 mg/dL
- TG (6 h): 41.4 mg/dL
- TP (6 h): 5.3 g/dL
- gamma-GTP (6 h): 1 IU/L
- TERMINAL_BW (9 h): 185.1 g
- APTT (9 h): 17 s
- Bas (9 h): 0.2%
- Eos (9 h): 0.8%
- Fbg (9 h): 298.8 mg/dL
- Hb (9 h): 13 g/dL
- Ht (9 h): 40.1%
- Lym (9 h): 66.6%
- MCH (9 h): 21.2 pg
- MCHC (9 h): 32.5%
- MCV (9 h): 65.3 fL
- Mono (9 h): 2.4%
- Neu (9 h): 29.6%
- PT (9 h): 15.7 s
- Plat (9 h): 109.5 x10_4/uL
- RBC (9 h): 615 x10_4/ul
- Ret (9 h): 9.4%
- WBC (9 h): 85.2 x10_2/uL
- KIDNEY_L (9 h): 0.8 g
- KIDNEY_R (9 h): 0.8 g
- KIDNEY_TOTAL (9 h): 1.6 g
- LIVER (9 h): 7.2 g
- A/G (9 h): 0.9
- ALP (9 h): 1439.4 IU/L
- ALT (9 h): 37.6 IU/L
- AST (9 h): 78 IU/L
- BUN (9 h): 7.6 mg/dL
- CRE (9 h): 0.2 mg/dL
- Ca (9 h): 10.4 mg/dL
- Cl (9 h): 107.4 meq/L
- DBIL (9 h): 0.014 mg/dL
- GLC (9 h): 157.4 mg/dL
- IP (9 h): 10.3 mg/dL
- K (9 h): 3.6 meq/L
- LDH (9 h): 51.6 IU/L
- Na (9 h): 143.2 meq/L
- PL (9 h): 131.4 mg/dL
- RALB (9 h): 2.5 g/dL
- TBIL (9 h): 0.078 mg/dL
- TC (9 h): 79.4 mg/dL
- TG (9 h): 18.4 mg/dL
- TP (9 h): 5.3 g/dL
- gamma-GTP (9 h): 0.6 IU/L
- TERMINAL_BW (24 h): 201.5 g
- APTT (24 h): 17.2 s
- Bas (24 h): 0.2%
- Eos (24 h): 1.4%
- Fbg (24 h): 293.6 mg/dL
- Hb (24 h): 12.9 g/dL
- Ht (24 h): 38.9%
- Lym (24 h): 77.2%
- MCH (24 h): 20.8 pg
- MCHC (24 h): 33.1%
- MCV (24 h): 62.6 fL
- Mono (24 h): 2.8%
- Neu (24 h): 17.2%
- PT (24 h): 16.2 s
- Plat (24 h): 117.8 x10_4/uL
- RBC (24 h): 622.4 x10_4/ul
- Ret (24 h): 8.9%
- WBC (24 h): 96.4 x10_2/uL
- KIDNEY_L (24 h): 0.9 g
- KIDNEY_R (24 h): 0.9 g
- KIDNEY_TOTAL (24 h): 1.8 g
- LIVER (24 h): 9 g
- A/G (24 h): 0.9
- ALP (24 h): 1430 IU/L
- ALT (24 h): 39.8 IU/L
- AST (24 h): 76.2 IU/L
- BUN (24 h): 13.6 mg/dL
- CRE (24 h): 0.2 mg/dL
- Ca (24 h): 10.4 mg/dL
- Cl (24 h): 105.8 meq/L
- DBIL (24 h): 0.012 mg/dL
- GLC (24 h): 185.2 mg/dL
- IP (24 h): 8.3 mg/dL
- K (24 h): 4.3 meq/L
- LDH (24 h): 108.2 IU/L
- Na (24 h): 142 meq/L
- PL (24 h): 151.6 mg/dL
- RALB (24 h): 2.5 g/dL
- TBIL (24 h): 0.04 mg/dL
- TC (24 h): 80.4 mg/dL
- TG (24 h): 69.8 mg/dL
- TP (24 h): 5.5 g/dL
- gamma-GTP (24 h): 0.4 IU/L
